According to patent US20140322278A1, “Modulation of Tissue Transglutaminase Activation in Disease” (The Board of Trustees of the Leland Stanford Junior …, priority 2011, published 2014):

T1: human thioredoxin (Homo sapiens, UniProt P10599)
T1 construct: made in house; host or cells: E. coli
T1 sequence (P10599 1-105): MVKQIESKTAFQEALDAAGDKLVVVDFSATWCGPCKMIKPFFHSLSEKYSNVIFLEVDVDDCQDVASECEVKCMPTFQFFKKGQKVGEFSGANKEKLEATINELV

T2: Trx (Homo sapiens, UniProt P10599)
T2 construct: made in house; host or cells: E. coli (Trx)
T2 sequence (P10599 1-105): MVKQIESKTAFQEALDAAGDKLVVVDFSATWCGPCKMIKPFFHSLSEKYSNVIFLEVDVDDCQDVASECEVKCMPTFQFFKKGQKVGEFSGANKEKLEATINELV


Tests used:
human thioredoxin = target: T1, human thioredoxin; test: Inhibition of human thioredoxin by disulfide analogs of PX-12 (kinh/Ki); assay type: biochemical
[1] = Reactivity of disulfide inhibitors towards dithiothreitol
[2] = system: TG2 activation in T84 monolayers; test: Thioredoxin-induced TG2 activation in T84 monolayers, 5BP incorporation ELISA; assay type: cell-based, human
Experimental: (§1) FIG. 7. Dose dependence of TG2 activation in response to recombinant human thioredoxin treatments of T84 and WI-38 monolayers measured in a quantitative enzyme linked immunosorbent type assay. Cellular monolayers were treated for 3 hrs at 0-10 μM thioredoxin with or without TG2 inhibition using 25 μM ERW1041E or with or without using 0-50 μM thioredoxin inhibitor PX-12. TG2 activation was quantified by the amount of 5BP crosslinked to native proteins in the extracellular matrix of cultured monolayers as measured by tetramethylbenzidine turnover via streptavidin-HRP labeling. (A) and (B) Illustrate the dependence of 5BP incorporation on thioredoxin exposure concentration in T84 and WI-38 cells, respectively. […] (C) and (D) Illustrate the dependence of 5BP incorporation on the ability of thioredoxin to activate TG2. TG2 activation was highest for control experiments with 0 μM PX-12. The amount of PX-12 required to reduce the 5BP incorporation in half at saturating concentrations of 3 μM thioredoxin in T84 and WI-38 cultures was 11 μM and 5 μM PX-12, respectively. […] Data reported as mean+/−standard deviation.
(§2) To test whether recombinant human thioredoxin could directly activate TG2 in cell culture, we used T84 and WI-38 monolayers in similar assays as described herein. T84 and WI-38 cells were grown into mature monolayers at which point varying amounts of pre-reduced thioredoxin were added to the culture medium along with 5BP and/or small molecule inhibitors, such as the TG2 inhibitor, ERW1041E, or the thioredoxin inhibitor, PX-12. 5BP incorporated into the extracellular matrix of cultured monolayers via activated TG2 was then quantified.

[3] = system: TG2 activation in WI-38 monolayers; test: Thioredoxin-induced TG2 activation in WI-38 monolayers, 5BP incorporation ELISA; assay type: cell-based, human
Experimental: as §1, §2

Trx = target: T2, Trx; test: Cell-free assay for Trx-mediated activation of oxidized TG2; assay type: biochemical; conditions: dose-dependent; 100 μM PX-12
Experimental: (§3) To test our hypothesis, we measured the kinetics of Trx-mediated activation of oxidized TG2. Reduced forms of Trx from E. coli and human were prepared by overexpression in and purification from recombinant E. coli. Dithiothreitol (DTT) was used as a reference small molecule reducing agent. […] We therefore quantified the specificity of human Trx for human oxidized TG2 by measuring the Michaelis-Menten parameters for Trx-mediated reduction of oxidized TG2. Insulin, a well-characterized extracellular substrate of Trx, was used as a reference, and human thioredoxin reductase was used as a catalyst to achieve turnover under steady-state conditions. […] Based on these parameters, one can estimate that as little as 2.5 nM Trx in the extracellular matrix should be able to activate 10% of the local oxidized TG2 within 30 min.
The small molecule PX-12 (1,1-methylpropyl 2-imidazolyl disulfide) inhibits Trx by oxidizing its active site Cys.

[4] = cited from earlier work
Insulin = test: Kinetics of Trx-mediated reduction of insulin (reference substrate); assay type: biochemical; conditions: human thioredoxin reductase as catalyst, steady state
Experimental: as §3

[5] = Homo sapiens, saturating 3 μM thioredoxin, read-out: amount of PX-12 required to reduce the 5BP incorporation in half

Trx kinh/Ki (human thioredoxin; human thioredoxin, bimolecular parameter estimating potency)	Trx/DTT (human thioredoxin; ratio of reactivity towards Trx relative to DTT (selectivity))	IC50 [2, 5]	Trx-mediated activation of oxidized TG2 (Trx)	Molecule	DTT k [1]	5BP incorporation in response to thioredoxin ([2]; PX-12 0-50 μM)	IC50 [3, 5]	5BP incorporation in response to thioredoxin ([3]; PX-12 0-50 μM)	adverse effects in humans ([4]; high doses administered to humans)	toxicity due to the 2-butanethiol leaving group ([4]; previous human clinical studies)	Km (Insulin)
2670 M⁻¹ s⁻¹	15	11 µM	complete inactivation	CCC(C)SSc1ncc[nH]1 (centres unmarked) [compound 1, 1-methylpropyl 2-imidazolyl disulfide]	180 M⁻¹ s⁻¹	quantitatively reduced	5 µM	quantitatively reduced	without any serious adverse effects	dose-limiting toxicity	–
–	–	–	–	recombinant human Trx: reduced human thioredoxin, overexpressed in and purified from recombinant E. coli (protein, UniProt P10599 2-105, looked up, reduced, reduced human thioredoxin, overexpressed in and purified from recombinant E. coli) Thioredoxin: VKQIESKTAFQEALDAAGDKLVVVDFSATWCGPCKMIKPFFHSLSEKYSNVIFLEVDVDDCQDVASECEVKCMPTFQFFKKGQKVGEFSGANKEKLEATINELV	–	–	–	–	–	–	30 µM
